The values that follow come from patent publication US5234934A, “Aminopropanol derivatives, process for their preparation and pharmaceutical compositions comprising the same” (priority 1989, dated 1993).

Read-outs that look alike come from different tables or passages of the source. Where only a bound is given, the exact number is not on record here.

Data set [1] can be described thus: acute toxicity test in mice (Litchfield and Wilcoxon). In kind it is in vivo, mouse. The note with it: mouse, in vivo, po., 14 days observation. The method, then: (§1) The test for acute toxicity was carried out by using 10 white mice (CFLP strain) (both male and female), weighing 18 to 22 g in each dose group. The compounds of the invention were administered orally in a dose of 20 ml/kg.
(§2) The animals were kept in a plastic box on wood chips in a room of room temperature. They could consume tap water and standard mouse feed ad libitum. The toxicity data were determined by the method of Litchfield and Wilcoxon (Litchfield, J. T., Wilcoxon, F. W.: J. Pharmacol. Exp. Ther. 96, 99/1949/).

In the next data set the test system is nervus ischiadicus. The data set can be described thus: local analgesic effect (Truant d'Amato's method). In kind it is in vivo. The following applies: for EC50 %: 0.2 ml injected around nervus ischiadicus; for Duration of effect: in a conc. of 0.5%. The procedure: The tests were carried out according to Truant d'Amato's method. 0.2 ml of test material was injected around the nervus ischiadicus in the middle of femur with a needle of 1 cm length. The criterion of analgesic effect was the lack of the motoric control of foot muscles.
The duration of effect was registered and the 50 percentile effective concentration (EC50) was calculated on the basis of the dose-effect curve. Lidocain was used as comparative material. (Truant, A. P., D'Amato, D.: Acta Chir Scand. 116, 351/1958/)

A further data set has as its system gastric acid secretion. The data set can be described thus: gastric acid secretion test (Shay). The class given is in vivo, rat. The following applies: rats; for inhibition in vivo at 160 mg/kg: dose 160 mg/kg po. The procedure: The test was carried out according to Shay's operational method. […] On the day of the test the pylorus of the animals was bound under ether narcosis. The test compounds were administered orally 3 hours before the operation. The animals of the control group were administered with the carrier only. 4 hours after the operation the stomach was removed, the content thereof was centrifuged and the amount of free acid was determined by titration with 0.1N sodium hydroxide.

The test system of data set [2] is coronary insufficiency caused by vasopressine. The data set can be described thus: antianginal effect on rats (vasopressine coronary insufficiency, Nieschulz). The class given is in vivo, rat. The note with it: for ED50: Rattus norvegicus, read-out: ED50 (antianginal). The procedure: The test was carried out by using rats weighing 180 to 220 g. The animals were narcotised by chloralose urethane (70 to 700 mg/kg ip.). The ECG alterations were registered in standard II lead with the aid of needle electrodes. The antianginal effect was measured with Nieschultz's method. The coronary insufficiency was caused by vasopressine (1 NE/kg, iv.). The size of the T-wave was measured before and after administration of vasopressine in both the control and test groups. The compounds of the invention were administered 2 minutes before the administration of vasopressine. (Nieschulz, O., Popendiker, K., Hoffmann, I.: Arzneimittel-Forschung 5, 680/1955/)

Another data set has as its system white mice (CFLP strain). Description: acute toxicity test in mice (Litchfield and Wilcoxon). In kind it is in vivo, mouse. The note with it: po., 14 days observation. The procedure: as §1, §2
The next data set can be described thus: LD50 po. on rat. The note with it: in vivo.
Data set [3] deals with aconitine-induced ECG alterations. The data set can be described thus: animal or person. The class given is in vivo, rat. The following applies: Rattus norvegicus. The method, then:
The test was carried out by using the modified method of Marmo et al. on rats weighing 160 to 200 g. The animals were narcotised by ethyl uretane (1.2 g/kg ip.). Aconitin was administered intravenously in a dose of 75 /ug/kg in the form of a bolus injection. The ECG alterations were monitored in standard II lead by 5 minutes after the administration of aconitine. The observed alterations were classified into classes 0 to 5. The compounds of the invention were administered 2 minutes or 60 minutes before the parenteral or oral administration of aconitine, respectively. […]
class 1: sometimes an extrasystole occurs class 2: each second one is an extrasystole class 3: extrasystoles in groups class 4: each one is an extrasystole class 5: fibrillation, death
(Marmo, E., DiGiacomo, S., Imperatore, A.: Arzeimittel-Forschung 20, 12/1970/)

The test system of data set [4] is peristalty of stomach and intestines. The data set can be described thus: effect exerted on the peristalty of stomach and intestines (Stickney et al., carbon suspension). The class given is in vivo, mouse. The note with it: po., mice; for ED50: Mus musculus, read-out: ED50 (antiperistaltic); for TI (therapeutic index): antiperistaltic. The method, then:
The antiperistaltic effect of the compounds was examined by the method of Stickney et al. on white mice of both sexes, weighing 20 to 25 g. The compounds to be tested were administered per os 60 minutes before the addition of carbon suspension to groups containing 10 mice each. The animals of the control groups were treated at the same time and in the same manner with the carrier only. The mice were killed 10 minutes after the addition of the carbon suspension, and the whole length of the intestines as well as the length of the intestines filled with carbon suspension were measured.

For a further data set, the system named is hexobarbital narcosis. The data set can be described thus: narcosis potentiating effect (hexobarbital sleeping time). The note with it: for ED50: Mus musculus, po, read-out: ED50 (narcosis potentiation); for TI (therapeutic index): narcosis potentiation.
Another data set has as its system beta-adrenergic. The note with it: background art; cited from earlier work.
Where [5] appears, read: Rattus norvegicus, read-out: Inhibition of free acid, %.
The mark [6] stands for this setting: iv., rats, vasopressine 1 NE/kg iv.
Where [7] appears, read: iv, read-out: Effect % (antiarrhythmic).

Procedure for hexobarbital narcosis: The narcosis potentiating effect of the compounds of the invention were examined on white mice, with 6 animals in each group. The mice were administered orally with the compounds of the invention, then both the control and the test groups were intravenously added 40 mg/kg of hexobarbital in order to make the mice sleep (Kaergard et al.).

Turning to `COc1ccc(/C=C2\CCCC\C2=N/OCC(O)CNC2CC2)cc1` (racemic) [Example 40, R,S-2-(E)-(4-Methoxyphenyl-methylene)-1-(E)-(3-cyclopropylamino-2-hydroxy-propoxyimino)-cyclohexane], the LD50 – broadly, the dose expected to kill half of the subjects tested – at 336 h in [1] turned out to be 800 mg/kg. Besides, in the data set on nervus ischiadicus, the EC50 % is 0.19% and the Duration of effect was 68 min. Also, the inhibition in vivo at 160 mg/kg in the data set with gastric acid secretion (setting [5]) stood at 57%.

Regarding `CCCN(CCC)CC(O)CO/N=C1\CCCCC\C1=C/c1ccc(OC)cc1` (racemic) [Example 51, R,S-2-(E)-(4-Methoxyphenyl-methylene)-1-(E)-(3-dipropylamino-2-hydroxy-propoxyimino)-cycloheptane], in data set [2] (setting [6]), the 50% effective dose (ED50) – broadly, the dose that gives a 50% effect, or the effect in half of the subjects – was found to be 0.43 mg/kg. In data set [1], this molecule registered a 50% lethal dose (LD50) at 336 h of 100 to 500 mg/kg. In the data set on nervus ischiadicus, this molecule yielded an EC50 % of 0.28% and a Duration of effect of 103 min.

For the molecule `CCCNCC(O)CO/N=C1\CCCC\C1=C/c1ccc(Cl)cc1` (stereo not drawn) [Example 46, R,S-2-(E)-(4-Chlorophenyl-methylene)-1-(E)-(3-propylamino-2-hydroxypropoxyimino)-cyclohexane], in the data set with white mice (CFLP strain), the LD50 entry is recorded as “more than 1000 mg/kg”. In the data set on nervus ischiadicus, this molecule returned an EC50 % of 0.19% and a Duration of effect of 81 min.

In the data set “LD50 po. on rat”, `C=C[C@H]1C[N@@]2CC[C@H]1C[C@@H]2[C@@H](O)c1ccnc2ccc(OC)cc12` [Quinidine, reference compound] registered an LD50 of 1130 mg/kg. In addition, the median effective dose (ED50) is 9.85 mg/kg in [3] (iv, read-out: ED50 iv. (antiarrhythmic)) and around 100 mg/kg in data set [3] (po, read-out: ED50 (antiarrhythmic, per os)). Besides, in data set [3] (setting [7]), the change in vivo at 4 mg/kg is -29%. Further, in [3] (po, read-out: Effect % (antiarrhythmic)), the change in vivo at 100 mg/kg was -52%.

In data set [1], `CC(C)NCC(O)CO/N=C1\CCCCCC\C1=C/c1ccccc1` (racemic) [Example 48, R,S-2-(E)-Phenylmethylene-1-(E)-[3-(1-methylethyl-amino)-2-hydroxypropxyimino]-cyclooctane] yielded a median lethal dose (LD50) at 336 h above 1000 mg/kg. In the data set on nervus ischiadicus, this molecule came in with an EC50 % of 0.31% and a Duration of effect of 122 min. Further, in [3] (setting [7]), the change in vivo at 4 mg/kg is -43.5%. For the same molecule, the inhibition in vivo at 100 mg/kg in the data set on gastric acid secretion (Rattus norvegicus, dose 100 mg/kg po., read-out: Inhibition of free acid, %) turned out to be 75%.

For `CN1CCN(CC(O)CO/N=C2\CCCC\C2=C/c2c(Cl)cccc2Cl)CC1` (racemic) [Example 36, R,S-2-(E)-(2,6-Dichlorophenyl-methylene)-1-(E)-[3-(4-methyl-1-piperazinyl)-2-hydroxy-propoxyimino]-cyclohexane], the values for the ED50 (in [4]; in data set [2] (setting [6]); in the data set with hexobarbital narcosis) were around 100 mg/kg, 1.28 mg/kg and 14 mg/kg, respectively. For the same molecule, the “TI (therapeutic index)” value in data set [4] was “about 7”; with hexobarbital narcosis (mice, po.), 50. This molecule had an LD50 at 336 h in data set [1] of 700 mg/kg.

With `CC(C)NCC(O)CO/N=C1\CCCC\C1=C/c1ccc(Cl)cc1` (stereo not drawn) [Example 26, R,S-2-(E)-(4-Chlorophenyl-methylene)-1-(E)-[3-(1-methylethylamino)-2'-hydroxy-propoxyimino]-cyclohexane], the “ED50 (antianginal)” value in [2] (setting [6]) is given as “about 2.0 mg/kg”. Further, the LD50 entry in the data set with white mice (CFLP strain) is given as “more than 1000 mg/kg”. In the data set on hexobarbital narcosis (mice, po.), the “TI (therapeutic index)” value was above 7. In addition, the “ED50 (narcosis potentiation)” value with hexobarbital narcosis (po., mice, hexobarbital 40 mg/kg iv) is recorded as 140 mg/kg. This molecule also returned an EC50 % in the data set on nervus ischiadicus of 0.22%. For the same molecule, in the data set on nervus ischiadicus, the Duration of effect turned out to be 49 min. The “Inhibition of free acid, %” value in the data set with gastric acid secretion (dose 100 mg/kg po.) was 66%; with gastric acid secretion (dose 200 mg/kg po.), 92%.

For `CC(C)NCC(O)CO/N=C1\CCCCC1Cc1ccc(Cl)cc1` (racemic) [Example 47, R,S-2-(E)-(4-Chlorophenyl-methyl)-1-(E)-[3-(1-methylethyl-amino)-2-hydroxy-propoxyimino]-cyclohexane], the ED50 in data set [2] (setting [6]) stood at 1.29 mg/kg. The median lethal dose (LD50) at 336 h in data set [1] worked out at 700 mg/kg. In the data set with nervus ischiadicus, the EC50 % stood at 0.18% and the Duration of effect worked out at 93 min.

On to `OC(CO/N=C1\CCCC\C1=C/c1ccccc1)CN1CC=C(c2ccccc2)CC1` (racemic) [Example 55, R,S-2-(E)-Phenylmethylene-1-(E)-[3-(4-phenyl-1,2,3,6-tetrahydro)-1-pyridinyl]-2-hydroxy-propoxyimino-cyclohexane], for which the median effective dose (ED50) in [2] (iv) is 1.77 mg/kg. Also, the 50% lethal dose (LD50) at 336 h in data set [1] was above 1000 mg/kg.

On to `OC(CO/N=C1\CCCC\C1=C/c1ccccc1)CN1CCCCCC1` (racemic) [Example 10, R,S-2-(E)-Phenylmethylene-1-(E)-(3-hexamethylene-imino-2-hydroxypropoxyimino)-cyclohexane], for which the median effective dose (ED50) in [2] (setting [6]) was 1.62 mg/kg. Also, in [1], the LD50 at 336 h amounted to 900 mg/kg. Further, the change in vivo at 4 mg/kg in data set [3] (setting [7]) is -47%.

As for `CC(Cc1ccccc1)NCCC(c1ccccc1)c1ccccc1` (stereo not drawn) [Prenilamine, reference compound], in data set [2] (iv), the ED50 was determined as 6.5 mg/kg.

`CCN(CC)CC(O)CO/N=C1\CCCCC\C1=C/c1ccc(OC)cc1` (racemic) [Example 44, R,S-2-(E)-(4-Methoxyphenyl-methylene)-1-(E)-(3-diethylamino-2-hydroxy-propoxyimino)-cycloheptane]: the median effective dose (ED50) in data set [2] (setting [6]) was found to be 1.93 mg/kg. In data set [1], this molecule came in with an LD50 at 336 h of 600 mg/kg.

On to `CN(C)CCCNCC(O)CO/N=C1\CCCC\C1=C/c1ccccc1` (racemic) [Example 11, R,S-2-(E)-Phenylmethylene-1-(E)-[3-(3-dimethylamino-1-propylamino)-2-hydroxy-propoxyimino]-cyclohexane], for which, in data set [4], the ED50 was determined as 100 mg/kg and the “TI (therapeutic index)” value is on record as 10. Also, the ED50 in data set [2] (setting [6]) came out at 0.93 mg/kg. In [1], this molecule gave a median lethal dose (LD50) at 336 h above 1000 mg/kg. In addition, the inhibition in vivo at 200 mg/kg in the data set on gastric acid secretion (Rattus norvegicus, dose 200 mg/kg po., read-out: Inhibition of free acid, %) was found to be 62%.

Turning to `CC(=NOCC(O)CNC(C)(C)C)C1CC1` (stereo not drawn) [Falintolol], the beta-adrenergic blocking effect entry in the data set with beta-adrenergic was “exhibits beta-adrenergic blocking activity”.

With “R,S-2-(E)-Chlorophenylmethylene-1-(E)-[3-(4-phenyl-1-piperazinyl)-2-hydroxy-propoxyimino]-cyclohexane [Example 24]”, in data set [4], the “TI (therapeutic index)” value is given as “about 7” and the “ED50 (antiperistaltic)” value is recorded as “about 150 mg/kg”. For the same molecule, the LD50 entry with white mice (CFLP strain) is “more than 1000 mg/kg”.

With `CCCNCC(O)CO/N=C1\CCCCC\C1=C/c1ccc(OC)cc1` (racemic) [Example 43, R,S-2-(E)-(4'-Methoxyphenyl-methylene)-1-(E)-(3-propylamino-2-hydroxy-propoxyimino)-cycloheptane], the ED50 in data set [2] (setting [6]) is around 2 mg/kg; in the data set on hexobarbital narcosis it was 50 mg/kg. Besides, the LD50 at 336 h in [1] worked out at 800 mg/kg. Moreover, the “TI (therapeutic index)” value with hexobarbital narcosis (mice, po.) is 16. In the data set with gastric acid secretion (setting [5]), the inhibition in vivo at 160 mg/kg was 32%.

Regarding `CC(C)(C)NCC(O)CON=C1c2ccccc2-c2ccccc21` (stereo not drawn) [IPS-339], in the data set on beta-adrenergic, the beta-adrenergic blocking effect result is reported as “exhibits beta-adrenergic blocking effect”.

Consider `CC(C)CNCC(O)CON=C1CCCCC1=Cc1cccc(Cl)c1` (stereo not drawn) [Example 25, R,S-2-(E)-3-Chlorophenylmethylene-1-(E)-[3-(2-methylpropyl-amino)-2-hydroxy-propoxyimino]-cyclohexane], for which the LD50 in the data set on white mice (CFLP strain) worked out at 900 mg/kg.
